Assay results: patent US10722520B2, “Heterocyclic compounds and their use in preventing or treating bacterial infections” (MUTABILIS, priority 2016, dated 2020)

How the values were obtained:
[1] = test system: E. coli RGN238; experiment: microbe, parasite or virus in culture; assay type: cell-based; conditions: Escherichia coli, RGN238, read-out: MIC compounds of the invention alone
Experimental: Log phase bacterial suspensions were adjusted to a final density of 5×10^5 cfu/mL in cation-adjusted Mueller-Hinton broth (Becton-Dickinson) and added to each well (98 μL). Microplates were incubated for 16-20 h at 35° C. in ambient air. The MIC of the compounds was defined as the lowest concentration of said compounds that prevented bacterial growth as read by visual inspection.

[2] = test system: E. cloacae 260508; experiment: MIC of ceftazidime (CAZ) at fixed concentration of compound (synergy), broth microdilution; assay type: cell-based; conditions: MIC of ceftazidime with compound fixed at 4 μg/mL; strain 260508 (E. cloacae)
In short: (§1)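 Log-phase bacteria were diluted to a final 5×10^5 cfu/mL in cation-adjusted Mueller-Hinton broth and incubated 16-20 h at 35° C in ambient air. MIC was taken as the lowest concentration preventing growth, judged visually.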

[3] = test system: E. cloacae P99; experiment: as above; assay type: cell-based; conditions: MIC of ceftazidime with compound fixed at 4 μg/mL; strain P99 (E. cloacae)
In short: as §1

[4] = test system: E. cloacae UFR51; experiment: as above; assay type: cell-based; conditions: MIC of ceftazidime with compound fixed at 4 μg/mL; strain UFR51 (E. cloacae)
In short: as §1

[5] = test system: E. cloacae UFR70; experiment: as above; assay type: cell-based; conditions: MIC of ceftazidime with compound fixed at 4 μg/mL; strain UFR70 (E. cloacae)
In short: as §1

[6] = test system: E. cloacae UFR85; experiment: as above; assay type: cell-based; conditions: MIC of ceftazidime with compound fixed at 4 μg/mL; strain UFR85 (E. cloacae)
In short: as §1

[7] = test system: E. coli 131119; experiment: as above; assay type: cell-based; conditions: MIC of ceftazidime with compound fixed at 4 μg/mL; strain 131119 (E. coli)
In short: as §1

[8] = test system: E. coli 190317; experiment: as above; assay type: cell-based; conditions: MIC of ceftazidime with compound fixed at 4 μg/mL; strain 190317 (E. coli)
In short: as §1

[9] = test system: E. coli RGN238; experiment: as above; assay type: cell-based; conditions: MIC of ceftazidime with compound fixed at 4 μg/mL; strain RGN238 (E. coli)
In short: as §1

[10] = test system: E. coli UFR18; experiment: as above; assay type: cell-based; conditions: MIC of ceftazidime with compound fixed at 4 μg/mL; strain UFR18 (E. coli)
In short: as §1

[11] = test system: E. coli UFR32; experiment: as above; assay type: cell-based; conditions: MIC of ceftazidime with compound fixed at 4 μg/mL; strain UFR32 (E. coli)
In short: as §1

[12] = test system: E. coli UFR39; experiment: as above; assay type: cell-based; conditions: MIC of ceftazidime with compound fixed at 4 μg/mL; strain UFR39 (E. coli)
In short: as §1

[13] = test system: E. coli UFR41; experiment: as above; assay type: cell-based; conditions: MIC of ceftazidime with compound fixed at 4 μg/mL; strain UFR41 (E. coli)
In short: as §1

[14] = test system: E. coli UFR61O; experiment: as above; assay type: cell-based; conditions: MIC of ceftazidime with compound fixed at 4 μg/mL; strain UFR61O (E. coli)
In short: as §1

[15] = test system: E. coli UFR74; experiment: as above; assay type: cell-based; conditions: MIC of ceftazidime with compound fixed at 4 μg/mL; strain UFR74 (E. coli)
In short: as §1

[16] = test system: K. oxytoca UFR21; experiment: as above; assay type: cell-based; conditions: MIC of ceftazidime with compound fixed at 4 μg/mL; strain UFR21 (K. oxytoca)
In short: as §1

[17] = test system: K. pneumoniae 160143; experiment: as above; assay type: cell-based; conditions: MIC of ceftazidime with compound fixed at 4 μg/mL; strain 160143 (K. pneumoniae)
In short: as §1

[18] = test system: K. pneumoniae 200047; experiment: as above; assay type: cell-based; conditions: MIC of ceftazidime with compound fixed at 4 μg/mL; strain 200047 (K. pneumoniae)
In short: as §1

[19] = test system: K. pneumoniae 6299; experiment: as above; assay type: cell-based; conditions: MIC of ceftazidime with compound fixed at 4 μg/mL; strain 6299 (K. pneumoniae)
In short: as §1

[20] = test system: K. pneumoniae BAA-1898; experiment: as above; assay type: cell-based; conditions: MIC of ceftazidime with compound fixed at 4 μg/mL; strain BAA-1898 (K. pneumoniae)
In short: as §1

[21] = test system: K. pneumoniae UFR24; experiment: as above; assay type: cell-based; conditions: MIC of ceftazidime with compound fixed at 4 μg/mL; strain UFR24 (K. pneumoniae)
In short: as §1

[22] = test system: K. pneumoniae UFR68; experiment: as above; assay type: cell-based; conditions: MIC of ceftazidime with compound fixed at 4 μg/mL; strain UFR68 (K. pneumoniae)
In short: as §1

[23] = test system: P. aeruginosa CIP107051; experiment: as above; assay type: cell-based; conditions: MIC of ceftazidime with compound fixed at 4 μg/mL; strain CIP107051 (P. aeruginosa)
In short: as §1

[24] = target: CMY-37 (Citrobacter freundii, UniProt P05193); conditions: read-out: IC50 β-lactamase CMY-37
[25] = target: AmpC (PAE) (Pseudomonas aeruginosa, UniProt P24735); experiment: biochemical
[26] = target: SHV-1 (Klebsiella pneumoniae, UniProt P0AD64)
[27] = target: CTX-M-15 (Escherichia coli, UniProt Q9EXV5)
[28] = target: OXA-1 (Escherichia coli, UniProt P13661)
[29] = target: OXA-11 (Pseudomonas aeruginosa, UniProt Q06778)
[30] = target: OXA-48 (Klebsiella pneumoniae, UniProt Q6XEC0)

Compound: O=C1N2CC(n3ccsc3=O)=CC(C2)N1OS(=O)(=O)[O-].[Na+] (stereo not drawn) [Example 1, Sodium [7-oxo-3-(2-oxo-thiazol-3-yl)-1,6-diaza-bicyclo[3.2.1]oct-3-en-6-yl]sulfate]
- MIC [1]: 8 µg/mL
- MIC combination of CAZ and compounds of the invention at 4 μg/mL [2]: <0.25
- MIC combination of CAZ and compounds of the invention at 4 μg/mL [3]: <0.25
- MIC combination of CAZ and compounds of the invention at 4 μg/mL [4]: <0.25
- MIC combination of CAZ and compounds of the invention at 4 μg/mL [5]: ≤0.25
- MIC combination of CAZ and compounds of the invention at 4 μg/mL [6]: <0.25
- MIC combination of CAZ and compounds of the invention at 4 μg/mL [7]: <0.25
- MIC combination of CAZ and compounds of the invention at 4 μg/mL [8]: <0.25
- MIC combination of CAZ and compounds of the invention at 4 μg/mL [9]: <0.25
- MIC combination of CAZ and compounds of the invention at 4 μg/mL [10]: <0.25
- MIC combination of CAZ and compounds of the invention at 4 μg/mL [11]: <0.25
- MIC combination of CAZ and compounds of the invention at 4 μg/mL [12]: <0.25
- MIC combination of CAZ and compounds of the invention at 4 μg/mL [13]: 0.5
- MIC combination of CAZ and compounds of the invention at 4 μg/mL [14]: ≤0.25
- MIC combination of CAZ and compounds of the invention at 4 μg/mL [15]: ≤0.25
- MIC combination of CAZ and compounds of the invention at 4 μg/mL [16]: 0.5
- MIC combination of CAZ and compounds of the invention at 4 μg/mL [17]: ≤0.25
- MIC combination of CAZ and compounds of the invention at 4 μg/mL [18]: ≤0.25
- MIC combination of CAZ and compounds of the invention at 4 μg/mL [19]: ≤0.25
- MIC combination of CAZ and compounds of the invention at 4 μg/mL [20]: ≤0.25
- MIC combination of CAZ and compounds of the invention at 4 μg/mL [21]: 0.5
- MIC combination of CAZ and compounds of the invention at 4 μg/mL [22]: <0.25
- MIC combination of CAZ and compounds of the invention at 4 μg/mL [23]: 8
- IC50 [24]: 33 nM
- IC50 [25]: 120 nM
- IC50 [26]: 1.5 nM
- IC50 [27]: 0.55 nM
- IC50 [28]: 120 nM
- IC50 [29]: 92 nM
- IC50 [30]: 1.9 nM
